The results in this text go back to BindingDB's records for doi:10.1021/jm00072a019 (J. Uriach & Cía., 1993).

Assay [1] is described as follows: In vitro inhibition of PAF-induced platelet aggregation in male rabbits.
Assay [2] is described as follows: Inhibition of PAF-induced platelet aggregation.

In assay [1], `Cc1ncccc1C(C#N)N1CCN(C(=O)CC(c2ccccc2)C(F)(F)F)CC1` (configuration not stated) [(2-Methyl-pyridin-3-yl)-[4-(4,4,4-trifluoro-3-phenyl-butyryl)-piperazin-1-yl]-acetonitrile] had an IC50 of 12 nM.
The molecule `Cc1ncccc1C(C#N)N1CCN(C(=O)CC(C)c2ccccc2)CC1` (configuration not stated) [(2-Methyl-pyridin-3-yl)-[4-(3-phenyl-butyryl)-piperazin-1-yl]-acetonitrile] came in with an IC50 in assay [1] of 32 nM.
As to `CCOC(=O)C(CC(=O)N1CCN(C(C#N)c2cccnc2C)CC1)(c1ccccc1)c1ccccc1` (configuration not stated) [4-{4-[Cyano-(2-methyl-pyridin-3-yl)-methyl]-piperazin-1-yl}-4-oxo-2,2-diphenyl-butyric acid ethyl ester], the IC50 in assay [1] is 46 nM.
`Cc1ncccc1C(C#N)N1CCN(C(=O)CON=C(c2ccccc2)c2ccccc2)CC1` (configuration not stated) [[4-(2-Benzhydrylideneaminooxy-acetyl)-piperazin-1-yl]-(2-methyl-pyridin-3-yl)-acetonitrile] came in with an IC50 in assay [1] of 87 nM.
Turning to `Cc1ncccc1C(C#N)N1CCN(C(=O)CC(NS(C)(=O)=O)c2ccccc2)CC1` (configuration not stated) [N-(3-{4-[Cyano-(2-methyl-pyridin-3-yl)-methyl]-piperazin-1-yl}-3-oxo-1-phenyl-propyl)-methanesulfonamide], in assay [1], the 50% inhibitory concentration (IC50) turned out to be 21 nM.
On to `Cc1ncccc1C(C#N)N1CCN(C(=O)CC(NC(=O)c2ccc[nH]c2=O)c2ccccc2)CC1` (configuration not stated) [N-(3-{4-[Cyano-(2-methyl-pyridin-3-yl)-methyl]-piperazin-1-yl}-3-oxo-1-phenyl-propyl)-2-hydroxy-nicotinamide], for which half-maximal inhibition in assay [1] (IC50) required 29 nM.
Turning to `CCOC(=O)C(c1cccnc1C)N1CCN(C(=O)CC(c2ccccc2)c2ccccc2)CC1` (configuration not stated) [[4-(3,3-Diphenyl-propionyl)-piperazin-1-yl]-(2-methyl-pyridin-3-yl)-acetic acid ethyl ester], in assay [1], half-maximal inhibition (IC50) was put at 15500 nM.
On the same count and under the same terms, the same measure for `Cc1ncccc1C(C#N)N1CCN(C(=O)CC(O)(c2ccc(F)cc2)c2ccc(F)cc2)CC1` (configuration not stated) [{4-[3,3-Bis-(4-fluoro-phenyl)-3-hydroxy-propionyl]-piperazin-1-yl}-(2-methyl-pyridin-3-yl)-acetonitrile]: 75 nM; for `Cc1ncccc1C(C#N)N1CCN(C(=O)CC(NC(=O)c2ccoc2)c2ccccc2)CC1` (configuration not stated) [Furan-3-carboxylic acid (3-{4-[cyano-(2-methyl-pyridin-3-yl)-methyl]-piperazin-1-yl}-3-oxo-1-phenyl-propyl)-amide]: 2600 nM; for `Cc1ncccc1C(C#N)N1CCN(C(=O)C[S+]([O-])C(c2ccccc2)c2ccccc2)CC1` (configuration not stated) [{4-[2-(Diphenyl-methanesulfinyl)-acetyl]-piperazin-1-yl}-(2-methyl-pyridin-3-yl)-acetonitrile]: 44 nM.
`Cc1ncccc1C(C#N)N1CCN(C(=O)/C=C(/c2ccccc2)C(F)(F)F)CC1` (configuration not stated) [(2-Methyl-pyridin-3-yl)-[4-(4,4,4-trifluoro-3-phenyl-but-2-enoyl)-piperazin-1-yl]-acetonitrile]: the IC50 in assay [1] was determined as 120 nM.
Regarding `Cc1ncccc1C(C#N)N1CCN(C(=O)CC(c2ccccc2)n2cccc2)CC1` (configuration not stated) [(2-Methyl-pyridin-3-yl)-[4-(3-phenyl-3-pyrrol-1-yl-propionyl)-piperazin-1-yl]-acetonitrile], in assay [1], it took 350 nM to reach half-maximal inhibition (IC50).
Consider `Cc1ncccc1C(C#N)N1CCN(C(=O)CN(C(c2ccccc2)c2ccccc2)S(C)(=O)=O)CC1` (configuration not stated) [N-Benzhydryl-N-(2-{4-[cyano-(2-methyl-pyridin-3-yl)-methyl]-piperazin-1-yl}-2-oxo-ethyl)-methanesulfonamide], for which half-maximal inhibition in assay [1] (IC50) was put at 82 nM.
`Cc1ncccc1C(C#N)N1CCN(C(=O)CC(O)(c2ccccc2)C(F)(F)F)CC1` (configuration not stated) [(2-Methyl-pyridin-3-yl)-[4-(4,4,4-trifluoro-3-hydroxy-3-phenyl-butyryl)-piperazin-1-yl]-acetonitrile]: in assay [1], the IC50 is 14 nM.
The same measure, in the same setting: the same measure for `Cc1ncccc1C(C#N)N1CCN(C(=O)CC(NC(=O)c2cnccn2)c2ccccc2)CC1` (configuration not stated) [Pyrazine-2-carboxylic acid (3-{4-[cyano-(2-methyl-pyridin-3-yl)-methyl]-piperazin-1-yl}-3-oxo-1-phenyl-propyl)-amide]: 820 nM; for `Cc1ncccc1C(CO)N1CCN(C(=O)CC(c2ccccc2)c2ccccc2)CC1` (configuration not stated) [1-{4-[2-Hydroxy-1-(2-methyl-pyridin-3-yl)-ethyl]-piperazin-1-yl}-3,3-diphenyl-propan-1-one]: 4000 nM.
`Cc1ncccc1C(C#N)N1CCN(C(=O)CC(NS(=O)(=O)c2ccccc2)c2ccccc2)CC1` (configuration not stated) [N-(3-{4-[Cyano-(2-methyl-pyridin-3-yl)-methyl]-piperazin-1-yl}-3-oxo-1-phenyl-propyl)-benzenesulfonamide] yielded an IC50 in assay [1] of 18 nM.
The same measure, in the same setting: with `Cc1ncccc1C(C#N)N1CCN(C(=O)CC(O)(c2ccccc2)c2cccnc2)CC1` (configuration not stated) [[4-(3-Hydroxy-3-phenyl-3-pyridin-3-yl-propionyl)-piperazin-1-yl]-(2-methyl-pyridin-3-yl)-acetonitrile] the figure was 32 nM; with `Cc1ncccc1C(C#N)N1CCN(C(=O)CS(=O)(=O)C(c2ccccc2)c2ccccc2)CC1` (configuration not stated) [{4-[2-(Diphenyl-methanesulfonyl)-acetyl]-piperazin-1-yl}-(2-methyl-pyridin-3-yl)-acetonitrile], 26 nM.
`Cc1ncccc1C(C#N)N1CCN(C(=O)CC(NC(=O)c2ncccc2O)c2ccccc2)CC1` (configuration not stated) [3-Hydroxy-pyridine-2-carboxylic acid (3-{4-[cyano-(2-methyl-pyridin-3-yl)-methyl]-piperazin-1-yl}-3-oxo-1-phenyl-propyl)-amide] had an IC50 in assay [1] of 130 nM.
In assay [1], `Cc1ncccc1C(C#N)N1CCN(C(=O)/C=C(\c2ccccc2)C(F)(F)F)CC1` (configuration not stated) [(2-Methyl-pyridin-3-yl)-[4-(4,4,4-trifluoro-3-phenyl-but-2-enoyl)-piperazin-1-yl]-acetonitrile] came in with an IC50 of 55 nM.
Molecule `Cc1ncccc1C(C#N)N1CCN(C(=O)CC(C)(O)c2ccccc2)CC1` (configuration not stated) [[4-(3-Hydroxy-3-phenyl-butyryl)-piperazin-1-yl]-(2-methyl-pyridin-3-yl)-acetonitrile] returned an IC50 in assay [1] of 36 nM.
As for `Cc1ncccc1C(C#N)N1CCN(C(=O)CC(c2ccccc2)N2CCCC2)CC1` (configuration not stated) [(2-Methyl-pyridin-3-yl)-[4-(3-phenyl-3-pyrrolidin-1-yl-propionyl)-piperazin-1-yl]-acetonitrile], the IC50 in assay [1] was determined as 18 nM.
In turn, `Cc1ncccc1C(C#N)N1CCN(C(=O)CC(c2ccccc2)N2CCCS2(=O)=O)CC1` (configuration not stated) [{4-[3-(1,1-Dioxo-1lambda*6*-isothiazolidin-2-yl)-3-phenyl-propionyl]-piperazin-1-yl}-(2-methyl-pyridin-3-yl)-acetonitrile] displayed a half-maximal inhibitory concentration (IC50) in assay [1] of 170 nM.
On to `CNC(=O)C(CC(=O)N1CCN(C(C#N)c2cccnc2C)CC1)c1ccccc1` (configuration not stated) [4-{4-[Cyano-(2-methyl-pyridin-3-yl)-methyl]-piperazin-1-yl}-N-methyl-4-oxo-2-phenyl-butyramide], for which the IC50 in assay [2] turned out to be 15200 nM.
`Cc1ncccc1C(C#N)N1CCN(C(=O)CC(c2ccccc2)N2CCOC2=O)CC1` (configuration not stated) [(2-Methyl-pyridin-3-yl)-{4-[3-(2-oxo-oxazolidin-3-yl)-3-phenyl-propionyl]-piperazin-1-yl}-acetonitrile] returned an IC50 in assay [2] of 63 nM.
On to `Cc1ncccc1C(C#N)N1CCN(C(=O)C(C)(C)C(F)(c2ccccc2)c2ccccc2)CC1` (configuration not stated) [[4-(3-Fluoro-2,2-dimethyl-3,3-diphenyl-propionyl)-piperazin-1-yl]-(2-methyl-pyridin-3-yl)-acetonitrile], for which, in assay [2], half-maximal inhibition (IC50) required 26 nM.
`Cc1ncccc1C(C#N)N1CCN(C(=O)CC(c2ccccc2)N2CCCC2=O)CC1` (configuration not stated) [(2-Methyl-pyridin-3-yl)-{4-[3-(2-oxo-pyrrolidin-1-yl)-3-phenyl-propionyl]-piperazin-1-yl}-acetonitrile] returned an IC50 in assay [2] of 30 nM.
The same measure, in the same setting: the same measure for `CCc1ncccc1C(C#N)N1CCN(C(=O)CNC(c2ccccc2)c2ccccc2)CC1` (configuration not stated) [{4-[2-(Benzhydryl-amino)-acetyl]-piperazin-1-yl}-(2-ethyl-pyridin-3-yl)-acetonitrile]: 38 nM.
In turn, `CO/N=C(/C)C(c1cccnc1C)N1CCN(C(=O)CC(c2ccccc2)c2ccccc2)CC1` (configuration not stated) [1-{4-[2-Methoxyimino-1-(2-methyl-pyridin-3-yl)-propyl]-piperazin-1-yl}-3,3-diphenyl-propan-1-one] registered an IC50 in assay [1] of 7800 nM.
In turn, `Cc1ncccc1C(C#N)N1CCN(C(=O)CC(NC(=O)c2cccnc2)c2ccccc2)CC1` (configuration not stated) [N-(3-{4-[Cyano-(2-methyl-pyridin-3-yl)-methyl]-piperazin-1-yl}-3-oxo-1-phenyl-propyl)-nicotinamide] registered an IC50 in assay [2] of 8.9 nM.
The molecule `Cc1ncccc1C(C#N)N1CCN(C(=O)CC(NC(=O)OCC(C)C)c2ccccc2)CC1` (configuration not stated) [(3-{4-[Cyano-(2-methyl-pyridin-3-yl)-methyl]-piperazin-1-yl}-3-oxo-1-phenyl-propyl)-carbamic acid isobutyl ester] came in with an IC50 in assay [2] of 36 nM.
